Several values for one entry are separate records, joined by “and”; a condition that tells them apart may be missing. Identical values can stand only once. Entries after “also recorded” stand apart in the source; their conditions may differ. Like-named read-outs stand apart in the source and are kept apart here.
How the values were obtained:
[1] = cited from earlier work
[2] = in vivo
Procedure: Eighteen volunteers were recruited for the study. The subjects were orally administered SHR2554 at a 50 mg daily dose (Day 1); then, they were orally administered itraconazole 200 mg Quaque Die (QD) for 4 days (Days 4–7) followed by co‐administration of itraconazole 200 mg and SHR2554 50 mg (Day 8). They took itraconazole 200 mg QD for 4 days (Days 9–12). All subjects were fasted for at least 10 h, and they ate a standard meal in 30 min before drug administration. Water was forbidden within 1 h after drug administration, and the subjects were fasted for at least 4 h after drug administration.
Safety evaluation included adverse events, laboratory tests, physical examination, measurement of vital signs, 12‐lead electrocardiogram, etc. All abnormal and clinically significant laboratory results were followed up until they returned to normal.

[3] = system: Caco‐2 cell model; set-up: method as in PMID 34498807; conditions: preclinical results; cited from earlier work
[4] = system: CYP3A4; conditions: preclinical test, no method or reference given; cited from earlier work
[5] = Pharmacokinetic interaction study of itraconazole on SHR2554, plasma SHR2554 by HPLC-MS/MS; format: in vivo, human; conditions: for AUC0–t / AUC0–∞ / C max: plasma SHR2554, mean ± SD
Procedure: Eighteen volunteers were recruited for the study. […] The samples of venous blood (4 ml) were collected into heparinized Vacutainer™ tubes and mixed gently. […] Thereafter, plasma was separated by centrifugation (2000g at 4°C for 10 min) within 1 h of sample collection and then stored at −80°C before analyses. The plasma concentrations of SHR2554 were determined by a validated method with sensitivity and specificity using high‐performance liquid chromatography–tandem mass spectrometry (HPLC‐MS/MS) by Shanghai InnoStar Bio‐tech Co. Ltd. Blood samples were pretreated by protein precipitation with acetonitrile. Biological sample analysis was performed using SHR149633 (free base) as an internal standard. Separation of SHR2554 was carried out using a […] ZORBAX Extend‐C18 column (2.1 × 50 mm, 1.8 μm), and analytes were detected on an AB SCIEX QTRAP 5500 mass spectrometer. The assay was linear over the range of 1–2000 ng·ml^−1. […] Plasma samples are stable under various conditions. The PK parameters were evaluated using Phoenix WinNonlin v8.1. Statistical analysis was performed with SAS v9.2 (SAS Institute). Descriptive statistics and tabulation of PK parameters for analytes were performed, and mean concentration‐time curves were plotted. After natural log transformation, the PK parameters were fitted with a mixed‐effects model. In the mixed‐effects model analysis, medication (itraconazole combined with SHR2554 or SHR2554 alone) was used as a fixed effect, and the participants in the model fitting were used as random effects. The corrected least‐square mean difference and 90% confidence interval (CI) between the administration of a single drug (SHR2554) alone and a combination drug (co‐administration of SHR2554 and itraconazole) were obtained. The corrected least‐square mean difference and its 90% confidence interval were converted to the adjusted geometric mean ratios (GMRs) (co‐administration of SHR2554 and itraconazole/SHR2554 alone) and its 90% confidence interval by taking the antilog.

[6] = system: CYP3A4; conditions: sponsor's preclinical studies, no method or reference given; cited from earlier work
[7] = cited from earlier work; remark: listed apart in the source
[8] = system: tumor; conditions: same dose; no reference given; cited from earlier work
[9] = system: wild‐type and mutant EZH2 enzymes; conditions: no method or reference given; cited from earlier work
[10] = system: CYP3A4; conditions: preclinical test, no method or reference given; cited from earlier work; remark: listed apart in the source
[11] = system: cell H3K27Me3 and cell proliferation; set-up: method as in PMID 34503063; conditions: cited from earlier work
[12] = cited from earlier work; remark: listed apart in the source
[13] = SHR2554 50 mg co-administered with itraconazole 200 mg (Day 8), fed, mean ± SD
[14] = SHR2554 50 mg co-administered with itraconazole 200 mg (Day 8), fed
[15] = SHR2554 50 mg single oral dose alone (Day 1), fed, mean ± SD
[16] = SHR2554 50 mg single oral dose alone (Day 1), fed
[17] = SHR2554 50 mg, itraconazole 200 mg, 90% CI in brackets
[18] = completed or ongoing clinical trials of SHR2554, reference not given

CC[C@H](C)n1cc(C)c2c(C(=O)NCc3c(C)cc(C)[nH]c3=O)cc(-c3ccc(N4CCNCC4)nc3)cc21 [GSK2816126, reference compound]
most common adverse reactions in clinical trial [1]: fatigue and nausea

CCC(C)n1ncn(-c2ccc(N3CCN(c4ccc(OCC5COC(Cn6cncn6)(c6ccc(Cl)cc6Cl)O5)cc4)CC3)cc2)c1=O (stereo not shown) [Itraconazole, itraconazole]
Itraconazole‐related TEAEs, Cases ([2]; human): 2
Itraconazole‐related TEAEs, Number of subjects (%) ([2]; human): 2 (11.1)
SHR2554‐related TEAEs, Cases ([2]; human): 1
SHR2554‐related TEAEs, Number of subjects (%) ([2]; human): 1 (5.6)
TEAEs, Cases ([2]; human): 2
TEAEs, Number of subjects (%) ([2]; human): 2 (11.1)
TEAEs, Total ([2]; human): 2 (11.1)
TEAEs: All kinds of inspection ([2]; human): 1 (5.6)
TEAEs: Appendicitis ([2]; human): 0
TEAEs: Blood in the urine ([2]; human): 0
TEAEs: Cardiac organ diseases ([2]; human): 0
TEAEs: Hematuria ([2]; human): 0
TEAEs: High blood uric acid ([2]; human): 0
TEAEs: Increased blood bilirubin ([2]; human): 0
TEAEs: Increased blood triglyceride ([2]; human): 1 (5.6)
TEAEs: Increased heart rate ([2]; human): 0
TEAEs: Infectious diseases ([2]; human): 0
TEAEs: Kidney and urinary system diseases ([2]; human): 0
TEAEs: Positive bacterial tests ([2]; human): 0
TEAEs: Positive urine leukocyte ([2]; human): 0
TEAEs: Rash ([2]; human): 1 (5.6)
TEAEs: Skin and subcutaneous tissue diseases ([2]; human): 1 (5.6)
TEAEs: Spermaturia ([2]; human): 0
TEAEs: Supraventricular extrasystole contraction ([2]; human): 0
drug-related TEAEs, Cases ([2]; human): 6
drug-related TEAEs, Cases [2]: six

CCc1c(N(CC)C2CCOCC2)cc2oc(CN3CCCCC3)cc2c1C(=O)NCc1c(C)cc(C)[nH]c1=O [SHR2554]
permeability [3]: low permeability
induction of the expression of the CYP3A4 enzyme [4]: only high concentration SHR2554 can induce
CL/F (apparent clearance) [5, 13]: 98.4 ± 46.96 L/h
t 1/2 (elimination half-life) [5, 13]: 8.678 ± 3.6031 h
AUC0–t [5, 14]: 612.13 ± 315.720 ng·h/mL
AUC0–∞ [5, 14]: 641.53 ± 319.538 ng·h/mL
C max ([5]; SHR2554 50 mg co-administered with itraconazole 200 mg (Day 8; itraconazole 200 mg QD Days 4-12), fed): 70.538 ± 25.0219 ng/mL
plasma concentration of all subjects at 96 h ([5]; SHR2554 50 mg combined with itraconazole 200 mg): below LLOQ
AUC_%Extrap (percentage of AUCINF_pred due to extrapolation from Tlast to infinity) [5, 15]: 14.498 ± 2.9731 (20.51) [N = 8] %
CL/F (apparent clearance) [5, 15]: 2127.7 ± 1592.02 L·h^−1 and 2127.7 ± 1592.02 (74.82) [N = 18] L·h^−1
T max [5, 15]: 1.472 ± 0.6286 (0.50, 3.00) [N = 18] h
V z /F [5, 15]: 8439.2 ± 3779.31 (44.78) [N = 18] L
t 1/2 (elimination half-life) [5, 15]: 3.287 ± 1.0636 (1.76, 5.94) [N = 18] h
AUC0–t [5, 16]: 28.70 ± 18.913 (65.90) [N = 18] h·ng·ml^−1
AUC0–∞ [5, 16]: 50.99 ± 19.358 (37.97) [N = 8] h·ng·ml^−1
C max [5, 16]: 10.197 ± 7.0262 (68.91) [N = 18] ng·ml^−1
adjusted geometric mean ratio of SHR2554 AUC0–t (co-administration with itraconazole / SHR2554 alone) [5, 17]: 23.75 fold
adjusted geometric mean ratio of SHR2554 AUC0–∞ (co-administration with itraconazole / SHR2554 alone) [5, 17]: 12.47 fold
adjusted geometric mean ratio of SHR2554 C max (co-administration with itraconazole / SHR2554 alone) [5, 17]: 7.73 fold
plasma concentration of all subjects at 24 h after administration ([5]; single-dose phase of SHR2554 50 mg, assay range 1–2000 ng·ml^−1): below lower limit of quantitation
enzyme catalysing the oxidative metabolism [6]: mainly metabolized by CYP3A4; also recorded: mainly catalyzed by CYP3A4
subjects with grade four neutropenia reported as SAE/DLT ([7]; 350 mg group, ref NCT03603951): one
subjects with grade three and four decreased platelet counts reported as SAE/DLT ([7]; 400 mg BID group, as of January 3, 2020, ref NCT03603951): two
safety at doses below 300 mg BID (including 300 mg BID) ([7]; no drug-related SAE or DLT, previous clinical studies, ref NCT03603951): good and good safety profile
recommended phase II dose ([7]; previous clinical studies, ref NCT03603951): 350 mg BID
increase of exposure relative to increase of dose ([7]; range of 50–400 mg BID, ref NCT03603951): higher than that of the administered dose
subjects with grade two anemia reported as SAE ([7]; ref NCT03741712): one
electrocardiogram finding in some subjects ([1]; completed or ongoing clinical trials of SHR2554, clinically controllable, no reference given): prolongation of the QT interval of the electrocardiogram
most common drug-related TEAEs in hematology [1, 18]: decreased white blood cell count, thrombocytopenia, neutropenia, and hyperlipidemia, increased aspartate aminotransferase level, hypertension, elevated alanine aminotransferase, anemia
non-hematological common drug-related TEAEs [1, 18]: nausea and fatigue
serum and tumor systemic exposure as fraction of that of EPZ-6438 [8]: about one‐fifth
tumor inhibition rate relative to the reference compound EPZ-6438 [8]: higher
inhibition of the activity of wild-type and mutant EZH2 enzymes [9]: potently inhibits
Itraconazole‐related TEAEs, Cases [2]: 2
Itraconazole‐related TEAEs, Number of subjects (%) [2]: 2 (11.1)
SHR2554‐related TEAEs, Cases [2]: 12
SHR2554‐related TEAEs, Number of subjects (%) [2]: 9 (50.0)
TEAEs, Cases [2]: 13
TEAEs, Number of subjects (%) [2]: 9 (50.0)
TEAEs, Total [2]: 9 (50.0)
TEAEs: All kinds of inspection [2]: 8 (44.4)
TEAEs: Appendicitis [2]: 0
TEAEs: Blood in the urine [2]: 2 (11.1)
TEAEs: Cardiac organ diseases [2]: 1 (5.6)
TEAEs: Hematuria [2]: 1 (5.6)
TEAEs: High blood uric acid [2]: 1 (5.6)
TEAEs: Increased blood bilirubin [2]: 0
TEAEs: Increased blood triglyceride [2]: 4 (22.2)
TEAEs: Increased heart rate [2]: 1 (5.6)
TEAEs: Infectious diseases [2]: 0
TEAEs: Kidney and urinary system diseases [2]: 2 (11.1)
TEAEs: Positive bacterial tests [2]: 2 (11.1)
TEAEs: Positive urine leukocyte [2]: 0
TEAEs: Rash [2]: 0
TEAEs: Skin and subcutaneous tissue diseases [2]: 0
TEAEs: Spermaturia [2]: 1 (5.6)
TEAEs: Supraventricular extrasystole contraction [2]: 1 (5.6)
drug-related TEAEs, Cases [2]: 16
inhibitory effect on CYP3A4 [10]: weak inhibitory effect
IC50 for inhibiting cell H3K27Me3 and cell proliferation, relative to EPZ-6438 [11]: comparable or even better
anti-tumor activity in vitro, relative to EPZ-6438 (tazemetostat) [11]: comparable

CC[C@H](C)C(=O)O[C@H]1C[C@@H](C)C=C2C=C[C@H](C)[C@H](CC[C@@H](O)C[C@@H](O)CC(=O)O)[C@H]21 [lovastatin (acid)]
change in the AUC with itraconazole ([12]; itraconazole dose 100 mg): 15 fold
change in the AUC with itraconazole ([12]; itraconazole dose 200 mg): 20 fold

CCN(c1cc(-c2ccc(CN3CCOCC3)cc2)cc(C(=O)NCc2c(C)cc(C)[nH]c2=O)c1C)C1CCOCC1 [tazemetostat, reference compound]
adverse effects in clinical trial [1]: thrombocytopenia, neutropenia, and anemia
